Experimental data from patent US20140039044A1, “Hydroxylated Polymethoxyflavone Compositions” (WLLGEN, INC., priority 2006, published 2014).
Read-outs that look alike come from different tables or passages of the source.

What was measured:
Format in all cases: cell-based, human
[1] = system: AGS cells; experiment: Cell cycle distribution by flow cytometry; conditions: 24 h
Method in brief: (§1)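 Human cancer cells (2×10^5 per dish) exposed 24 h to compound at 5–100 μM, or DMSO. Cells ethanol-fixed at −20° C overnight, RNase/Triton-treated at 37° C for 30 min, then stained with propidium iodide. DNA content read by FACScan flow cytometry to give phase distribution.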

[2] = system: COLO205 cells; experiment: Cell cycle distribution by flow cytometry; conditions: 24 h; for Cell Cycle Distribution G0/G1 / Cell Cycle Distribution G2/M / Cell Cycle Distribution S: COLO205 cells
Method in brief: as §1

[3] = system: HT-29 cells; experiment: Cell cycle distribution by flow cytometry; conditions: for Cell Cycle Distribution G0/G1 / Cell Cycle Distribution G2/M / Cell Cycle Distribution S: 24 h
Method in brief: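 Cells were treated 24 h with compound at 5, 10, 25, 50 or 100 μM, or with DMSO. They were then ethanol-fixed, RNase-treated and stained with propidium iodide. DNA content was measured by FACScan flow cytometry to give cell-cycle phase distribution.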

[4] = system: HL-60 cells; experiment: Cell survival assay (antiproliferative IC50); conditions: Homo sapiens, HL-60 cells, read-out: Antiproliferative IC50
[5] = system: AGS cells; experiment: Cell survival assay (antiproliferative IC50); conditions: Homo sapiens, AGS cells, read-out: Antiproliferative IC50
[6] = system: COLO205 cells; experiment: Cell survival assay (antiproliferative IC50); conditions: Homo sapiens, COLO 205, COLO205 cells, read-out: Antiproliferative IC50

SMILES: COc1ccc(-c2cc(=O)c3c(OC)c(OC)c(OC)c(OC)c3o2)cc1OC [Compound A, 5,6,7,8,3′,4′-hexamethoxyflavone, reference compound]
- Cell Cycle Distribution G0/G1 ([1]; 5 μM, Table 7): 58.67 ± 0.61
- Cell Cycle Distribution G2/M ([1]; 5 μM, Table 7): 13.50 ± 1.34
- Cell Cycle Distribution S ([1]; 5 μM, Table 7): 27.84 ± 1.94
- Cell Cycle Distribution G0/G1 ([1]; 5 μM, Table 11): 44.7 ± 0.71
- Cell Cycle Distribution G2/M ([1]; 5 μM, Table 11): 0.4 ± 0.57
- Cell Cycle Distribution S ([1]; 5 μM, Table 11): 54.4 ± 0.64
- Cell Cycle Distribution G0/G1 ([1]; 10 μM, Table 7): 59.74 ± 0.36
- Cell Cycle Distribution G2/M ([1]; 10 μM, Table 7): 13.57 ± 1.23
- Cell Cycle Distribution S ([1]; 10 μM, Table 7): 26.70 ± 0.87
- Cell Cycle Distribution G0/G1 ([1]; 10 μM, Table 11): 47.1 ± 0.28
- Cell Cycle Distribution G2/M ([1]; 10 μM, Table 11): 5.0 ± 0.64
- Cell Cycle Distribution S ([1]; 10 μM, Table 11): 49.1 ± 0.64
- Cell Cycle Distribution G0/G1 ([1]; 25 μM, Table 7): 59.56 ± 1.98
- Cell Cycle Distribution G2/M ([1]; 25 μM, Table 7): 13.50 ± 0.35
- Cell Cycle Distribution S ([1]; 25 μM, Table 7): 26.95 ± 2.33
- Cell Cycle Distribution G0/G1 ([1]; 25 μM, Table 11): 52.9 ± 1.06
- Cell Cycle Distribution G2/M ([1]; 25 μM, Table 11): 2.8 ± 0.35
- Cell Cycle Distribution S ([1]; 25 μM, Table 11): 43.7 ± 0.42
- Cell Cycle Distribution G0/G1 ([1]; 50 μM, Table 7): 56.45 ± 0.03
- Cell Cycle Distribution G2/M ([1]; 50 μM, Table 7): 15.25 ± .33
- Cell Cycle Distribution S ([1]; 50 μM, Table 7): 28.31 ± 0.36
- Cell Cycle Distribution G0/G1 ([1]; 50 μM, Table 11): 53.8 ± 0.64
- Cell Cycle Distribution G2/M ([1]; 50 μM, Table 11): 6.6 ± 0.69
- Cell Cycle Distribution S ([1]; 50 μM, Table 11): 41.3 ± 0.92
- Cell Cycle Distribution G0/G1 ([1]; 100 μM, Table 7): 46.13 ± 4.96
- Cell Cycle Distribution G2/M ([1]; 100 μM, Table 7): 15.54 ± 1.10
- Cell Cycle Distribution S ([1]; 100 μM, Table 7): 28.33 ± 3.86
- Cell Cycle Distribution G0/G1 ([1]; 100 μM, Table 11): 66.9 ± 0.14
- Cell Cycle Distribution G2/M ([1]; 100 μM, Table 11): 3.2 ± 0.57
- Cell Cycle Distribution S ([1]; 100 μM, Table 11): 31.0 ± 0.64
- Cell Cycle Distribution G0/G1 ([2]; 5 μM, Table 6): 63.83 ± 0.29
- Cell Cycle Distribution G2/M ([2]; 5 μM, Table 6): 8.25 ± 0.69
- Cell Cycle Distribution S ([2]; 5 μM, Table 6): 27.93 ± 0.98
- Cell Cycle Distribution G0/G1 ([2]; 5 μM, Table 12): 63.63 ± 0.53
- Cell Cycle Distribution G2/M ([2]; 5 μM, Table 12): 1.58 ± 0.04
- Cell Cycle Distribution S ([2]; 5 μM, Table 12): 34.80 ± 0.57
- Cell Cycle Distribution G0/G1 ([2]; 10 μM, Table 6): 71.13 ± 0.65
- Cell Cycle Distribution G2/M ([2]; 10 μM, Table 6): 7.42 ± 0.48
- Cell Cycle Distribution S ([2]; 10 μM, Table 6): 21.45 ± 0.17
- Cell Cycle Distribution G0/G1 ([2]; 10 μM, Table 12): 67.25 ± 0.38
- Cell Cycle Distribution G2/M ([2]; 10 μM, Table 12): 0.25 ± 0.25
- Cell Cycle Distribution S ([2]; 10 μM, Table 12): 32.50 ± 0.13
- Cell Cycle Distribution G0/G1 ([2]; 25 μM, Table 6): 84.21 ± 4.38
- Cell Cycle Distribution G2/M ([2]; 25 μM, Table 6): 4.50 ± 0.35
- Cell Cycle Distribution S ([2]; 25 μM, Table 6): 14.29 ± 0.22
- Cell Cycle Distribution G0/G1 ([2]; 25 μM, Table 12): 69.94 ± 1.02
- Cell Cycle Distribution G2/M ([2]; 25 μM, Table 12): 0.64 ± 0.07
- Cell Cycle Distribution S ([2]; 25 μM, Table 12): 27.42 ± 1.09
- Cell Cycle Distribution G0/G1 ([2]; 50 μM, Table 6): 76.82 ± 1.48
- Cell Cycle Distribution G2/M ([2]; 50 μM, Table 6): 6.30 ± 0.08
- Cell Cycle Distribution S ([2]; 50 μM, Table 6): 16.89 ± 1.39
- Cell Cycle Distribution G0/G1 ([2]; 50 μM, Table 12): 82.40 ± 0.63
- Cell Cycle Distribution G2/M ([2]; 50 μM, Table 12): 0.29 ± 0.08
- Cell Cycle Distribution S ([2]; 50 μM, Table 12): 17.50 ± 0.45
- Cell Cycle Distribution G0/G1 ([2]; 100 μM, Table 6): 77.12 ± 2.00
- Cell Cycle Distribution G2/M ([2]; 100 μM, Table 6): 5.11 ± .46
- Cell Cycle Distribution S ([2]; 100 μM, Table 6): 17.74 ± 2.40
- Cell Cycle Distribution G0/G1 ([2]; 100 μM, Table 12): 65.60 ± 0.65
- Cell Cycle Distribution G2/M ([2]; 100 μM, Table 12): 6.20 ± 1.25
- Cell Cycle Distribution S ([2]; 100 μM, Table 12): 28.21 ± 0.60
- Cell cycle arrest, in words ([2]; COLO 205 cells, compound A 50 μM, compound I 100 μM): trends in G1 arrest
- Cell Cycle Distribution G0/G1 ([3]; 5 μM): 63.67 ± 0.14
- Cell Cycle Distribution G2/M ([3]; 5 μM): 8.22 ± 0.37
- Cell Cycle Distribution S ([3]; 5 μM): 28.12 ± 0.52
- Cell Cycle Distribution G0/G1 ([3]; 10 μM): 66.57 ± 0.66
- Cell Cycle Distribution G2/M ([3]; 10 μM): 7.45 ± 0.28
- Cell Cycle Distribution S ([3]; 10 μM): 26.98 ± 0.94
- Cell Cycle Distribution G0/G1 ([3]; 25 μM): 69.67 ± 1.15
- Cell Cycle Distribution G2/M ([3]; 25 μM): 7.58 ± 0.00
- Cell Cycle Distribution S ([3]; 25 μM): 22.76 ± 1.15
- Cell Cycle Distribution G0/G1 ([3]; 50 μM): 83.26 ± 0.46
- Cell Cycle Distribution G2/M ([3]; 50 μM): 4.97 ± 0.67
- Cell Cycle Distribution S ([3]; 50 μM): 11.79 ± 1.13
- Cell Cycle Distribution G0/G1 ([3]; 100 μM): 89.49 ± 0.57
- Cell Cycle Distribution G2/M ([3]; 100 μM): 5.60 ± 0.57
- Cell Cycle Distribution S ([3]; 100 μM): 4.92 ± 0.00
- Cell cycle arrest, in words ([3]; 5-100 μM, 24 h exposure): significant accumulation of cells in G1 phase
- IC50 ([4]; Table 4): > 100 µg/mL
- IC50 [4]: > 100 µM
- IC50 ([5]; Table 4): > 100 µg/mL
- IC50 [5]: > 100 µM
- IC50 ([6]; Table 4): 66.7 ± 0.73 µg/mL
- IC50 [6]: 38 ± 1.4 µM

SMILES: COc1cc(-c2cc(=O)c3c(O)c(OC)c(OC)c(OC)c3o2)cc(OC)c1OC [E, 5-hydroxy-6,7,8,3′,4′,5′-hexamethoxyflavone]
- Cell Cycle Distribution G0/G1 ([1]; 5 μM, Table 11): 55.70 ± 0.14
- Cell Cycle Distribution G2/M ([1]; 5 μM, Table 11): 15.88 ± 0.89
- Cell Cycle Distribution S ([1]; 5 μM, Table 11): 28.42 ± 0.75
- Cell Cycle Distribution G0/G1 ([1]; 10 μM, Table 11): 56.96 ± 3.14
- Cell Cycle Distribution G2/M ([1]; 10 μM, Table 11): 16.00 ± 0.55
- Cell Cycle Distribution S ([1]; 10 μM, Table 11): 27.05 ± 2.60
- Cell Cycle Distribution G0/G1 ([1]; 25 μM, Table 11): 56.32 ± 2.62
- Cell Cycle Distribution G2/M ([1]; 25 μM, Table 11): 14.40 ± 2.38
- Cell Cycle Distribution S ([1]; 25 μM, Table 11): 29.25 ± 0.18
- Cell Cycle Distribution G0/G1 ([1]; 50 μM, Table 11): 54.53 ± 0.30
- Cell Cycle Distribution G2/M ([1]; 50 μM, Table 11): 15.69 ± 1.41
- Cell Cycle Distribution S ([1]; 50 μM, Table 11): 29.79 ± 1.10
- Cell Cycle Distribution G0/G1 ([1]; 100 μM, Table 11): 55.68 ± 0.46
- Cell Cycle Distribution G2/M ([1]; 100 μM, Table 11): 13.51 ± 0.17
- Cell Cycle Distribution S ([1]; 100 μM, Table 11): 30.82 ± 0.29
- Cell Cycle Distribution G0/G1 ([2]; 5 μM, Table 12): 67.66 ± 0.19
- Cell Cycle Distribution G2/M ([2]; 5 μM, Table 12): 8.75 ± 0.17
- Cell Cycle Distribution S ([2]; 5 μM, Table 12): 23.60 ± 0.03
- Cell Cycle Distribution G0/G1 ([2]; 10 μM, Table 12): 67.48 ± 0.59
- Cell Cycle Distribution G2/M ([2]; 10 μM, Table 12): 8.29 ± 0.48
- Cell Cycle Distribution S ([2]; 10 μM, Table 12): 24.24 ± 0.11
- Cell Cycle Distribution G0/G1 ([2]; 25 μM, Table 12): 67.40 ± 0.49
- Cell Cycle Distribution G2/M ([2]; 25 μM, Table 12): 7.59 ± 1.18
- Cell Cycle Distribution S ([2]; 25 μM, Table 12): 25.02 ± 0.70
- Cell Cycle Distribution G0/G1 ([2]; 50 μM, Table 12): 69.49 ± 2.62
- Cell Cycle Distribution G2/M ([2]; 50 μM, Table 12): 6.59 ± 0.82
- Cell Cycle Distribution S ([2]; 50 μM, Table 12): 23.93 ± 1.80
- Cell Cycle Distribution G0/G1 ([2]; 100 μM, Table 12): 69.99 ± 0.89
- Cell Cycle Distribution G2/M ([2]; 100 μM, Table 12): 5.52 ± 0.90
- Cell Cycle Distribution S ([2]; 100 μM, Table 12): 24.50 ± 0.00
- Cell Cycle Distribution G0/G1 ([3]; 5 μM): 57.96 ± 0.21
- Cell Cycle Distribution G2/M ([3]; 5 μM): 10.19 ± 0.07
- Cell Cycle Distribution S ([3]; 5 μM): 31.85 ± 0.14
- Cell Cycle Distribution G0/G1 ([3]; 10 μM): 57.86 ± 0.31
- Cell Cycle Distribution G2/M ([3]; 10 μM): 10.01 ± 0.46
- Cell Cycle Distribution S ([3]; 10 μM): 32.14 ± 0.78
- Cell Cycle Distribution G0/G1 ([3]; 25 μM): 59.20 ± 0.06
- Cell Cycle Distribution G2/M ([3]; 25 μM): 9.63 ± 0.69
- Cell Cycle Distribution S ([3]; 25 μM): 31.18 ± 0.74
- Cell Cycle Distribution G0/G1 ([3]; 50 μM): 58.95 ± 0.95
- Cell Cycle Distribution G2/M ([3]; 50 μM): 9.26 ± 0.16
- Cell Cycle Distribution S ([3]; 50 μM): 31.79 ± 1.12
- Cell Cycle Distribution G0/G1 ([3]; 100 μM): 61.79 ± 1.47
- Cell Cycle Distribution G2/M ([3]; 100 μM): 8.79 ± 1.23
- Cell Cycle Distribution S ([3]; 100 μM): 29.42 ± 0.24
- IC50 [4]: > 100 µM
- IC50 [5]: > 100 µM
- IC50 [6]: > 100 µM
